Measurements taken from US11161837B2, “Benzofuran derivatives for the treatment of hepatitis C” (BRISTOL-MYERS SQUIBB COMPANY, priority 2016, dated 2021).

Each molecule was assayed on genotype 1b (Con-1) HCV replicon in Huh-7 cells (assay: HCV replicon luciferase assay). Details: 1b replicon, Huh-7, Renilla luciferase, 3 days incubation.
Type: cell-based
Experimental: The cell lines used to evaluate compounds consist of a human hepatocyte derived cell line (Huh-7) that constitutively expresses a genotype 1b (Con-1) HCV replicon or a genotype 1b (Con-1) HCV replicon with an asparagine replacing the cysteine at amino acid 316, or a genotype 2a (JFH-1) replicon, containing a Renilla luciferase reporter gene. These cells were maintained in Dulbecco's modified Eagle medium (DMEM) containing 10% FBS, 100 U/mL penicillin/streptomycin and 1.0 mg/mL G418.
HCV Replicon Luciferase Assay.
To evaluate compound efficacy, titrated compounds were transferred to sterile 384-well tissue culture treated plates, and the plates were seeded with HCV replicon cells (50 μL at a density of 2.4×10^3 cells/well) in DMEM containing 4% FBS (final DMSO concentration at 0.5%). After 3 days incubation at 37° C., cells were analyzed for Renilla Luciferase activity using the EnduRen substrate (Promega cat # E6485) according to the manufacturer's directions. Briefly, the EnduRen substrate was diluted in DMEM and then added to the plates to a final concentration of 7.5 μM. The plates were incubated for at least 1 h at 37° C. then read on a Viewlux Imager (PerkinElmer) using a luminescence program. The 50% effective concentration (EC50) was calculated using the four-parameter logistic formula noted above.

Compound	EC50 [nM]
CNC(=O)c1c(-c2ccc(F)cc2)oc2cc(CCC(F)(F)F)c(-c3cc(C(=O)NC4(C)CC(OC(F)F)C4)c(OC)cc3C)cc12 (single isomer, unassigned) [Example 53b, 5-(5-((3-(Difluoromethoxy)-1-methylcyclobutyl)carbamoyl)-4-methoxy-2-methylphenyl)-2-(4-fluorophenyl)-N-methyl-6-(3,3,3-trifluoropropyl)benzofuran-3-carboxamide]	60
CCCc1cc2oc(-c3ccc(F)cc3)c(C(=O)NC)c2cc1-c1ccc(F)c(C(=O)NC2(C)CC(OC(F)F)C2)c1 (single isomer, unassigned) [Example 61b, 5-(3-((3-(Difluoromethoxy)-1-methylcyclobutyl)carbamoyl)-4-fluorophenyl)-2-(4-fluorophenyl)-N-methyl-6-propylbenzofuran-3-carboxamide]	20
CCCc1cc2oc(-c3ccc(F)cc3)c(C(=O)NC)c2cc1-c1cc(C(=O)NC2(C)CC(OC(F)F)C2)c(OC)cc1C (single isomer, unassigned) [Example 57b, 5-(5-((3-(Difluoromethoxy)-1-methylcyclobutyl)carbamoyl)-4-methoxy-2-methylphenyl)-2-(4-fluorophenyl)-N-methyl-6-propylbenzofuran-3-carboxamide]	70
CNC(=O)c1c(-c2ccc(F)cc2)oc2cc(CCC(F)(F)F)c(-c3cc(C(=O)NC4(c5ncccn5)CC(OC(F)(F)F)C4)c(OC)cc3C)cc12 (single isomer, unassigned) [Example 46b, 2-(4-Fluorophenyl)-5-(4-methoxy-2-methyl-5-((1-(pyrimidin-2-yl)-3-(trifluoromethoxy)cyclobutyl)carbamoyl)phenyl)-N-methyl-6-(3,3,3-trifluoropropyl)benzofuran-3-carboxamide]	80
CNC(=O)c1c(-c2ccc(F)cc2)oc2cc(CCC(F)(F)F)c(-c3cccc(C(=O)NC4(c5ncccn5)CC(OC(F)F)C4)c3)cc12 (single isomer, unassigned) [Example 29b]	30
CCCc1cc2oc(-c3ccc(F)cc3)c(C(=O)NC)c2cc1-c1cccc(C(=O)NC2(C)CC(OC(F)F)C2)c1 (single isomer, unassigned) [Example 55b, 5-(3-((3-(Difluoromethoxy)-1-methylcyclobutyl)carbamoyl)phenyl)-2-(4-fluorophenyl)-N-methyl-6-propylbenzofuran-3-carboxamide]	30

Same assay, conditions: Hepatitis C virus, Huh-7, 72 h, 1b replicon, Huh-7, Renilla luciferase, 3 days incubation

Compound	EC50 [nM]
CCCc1cc2oc(-c3ccc(F)cc3)c(C(=O)NC)c2cc1-c1cc(C(=O)NC2(c3ncccn3)CC(OC(F)(F)F)C2)c(OC)cc1C (single isomer, unassigned) [Example 50a, 2-(4-Fluorophenyl)-5-(4-methoxy-2-methyl-5-((1-(pyrimidin-2-yl)-3-(trifluoromethoxy)cyclobutyl)carbamoyl)phenyl)-N-methyl-6-propylbenzofuran-3-carboxamide]	120
CNC(=O)c1c(-c2ccc(F)cc2)oc2cc(CCC(F)(F)F)c(-c3cc(C(=O)NC4(c5ncccn5)CC(OC(F)F)C4)c(OC)cc3C)cc12 (stereo not shown) [Example 41, 5-(5-((3-(Difluoromethoxy)-1-(pyrimidin-2-yl)cyclobutyl)carbamoyl)-4-methoxy-2-methylphenyl)-2-(4-fluorophenyl)-N-methyl-6-(3,3,3-trifluoropropyl)benzofuran-3-carboxamide]	20
CCN(c1cc2oc(-c3ccc(F)cc3)c(C(=O)NC)c2c(F)c1-c1cccc(C(=O)NC2(c3ncccn3)CC(F)C2)c1)S(C)(=O)=O (stereo not shown) [Example 22, 6-(N-ethylmethylsulfonamido)-4-fluoro-5-(3-((3-fluoro-1-(pyrimidin-2-yl)cyclobutyl)carbamoyl)phenyl)-2-(4-fluorophenyl)-N-methylbenzofuran-3-carboxamide]	4.94
CCCc1cc2oc(-c3ccc(F)cc3)c(C(=O)NC)c2cc1-c1ccc(OC)c(C(=O)NC2(c3ncccn3)CC(OC(F)F)C2)c1 (stereo not shown) [Example 37]	6.08
CCN(c1cc2oc(-c3ccc(F)cc3)c(C(=O)NC)c2cc1-c1cccc(C(=O)NC2(c3ncccn3)CC(OC(F)F)C2)c1)S(C)(=O)=O (stereo not shown) [Example 24, 5-(3-((3-(difluoromethoxy)-1-(pyrimidin-2-yl)cyclobutyl)carbamoyl)phenyl)-6-(N-ethylmethylsulfonamido)-2-(4-fluorophenyl)-N-methylbenzofuran-3-carboxamide]	2.2
CCCc1cc2oc(-c3ccc(F)cc3)c(C(=O)NC)c2cc1-c1ccc(F)c(C(=O)NC2(c3ncccn3)CC(OC(F)F)C2)c1 (stereo not shown) [Example 32, 5-(3-((3-(Difluoromethoxy)-1-(pyrimidin-2-yl)cyclobutyl)carbamoyl)-4-fluorophenyl)-2-(4-fluorophenyl)-N-methyl-6-propylbenzofuran-3-carboxamide]	9.02
CNC(=O)c1c(-c2ccc(F)cc2)oc2cc(CCC(F)(F)F)c(-c3cccc(C(=O)NC4(C)CC(OC(F)F)C4)c3)cc12 (single isomer, unassigned) [Example 59a, 5-(3-((3-(Difluoromethoxy)-1-methylcyclobutyl)carbamoyl)phenyl)-2-(4-fluorophenyl)-N-methyl-6-(3,3,3-trifluoropropyl)benzofuran-3-carboxamide]	30
CCN(c1cc2oc(-c3ccc(F)cc3)c(C(=O)NC)c2c(F)c1-c1ccc(OC)c(C(=O)NC2(c3ncccn3)CC(F)C2)c1)S(C)(=O)=O (stereo not shown) [Example 26, 6-(N-ethylmethylsulfonamido)-4-fluoro-5-(3-((3-fluoro-1-(pyrimidin-2-yl)cyclobutyl)carbamoyl)-4-methoxyphenyl)-2-(4-fluorophenyl)-N-methylbenzofuran-3-carboxamide]	2.25
CCN(c1cc2oc(-c3ccc(F)cc3)c(C(=O)NC)c2c(F)c1-c1cccc(C(=O)NC2(c3ncccn3)CC(OC(F)F)C2)c1)S(C)(=O)=O (stereo not shown) [Example 21, 5-(3-((3-(Difluoromethoxy)-1-(pyrimidin-2-yl)cyclobutyl)carbamoyl)phenyl)-6-(N-ethylmethylsulfonamido)-4-fluoro-2-(4-fluorophenyl)-N-methylbenzofuran-3-carboxamide]	2.23
CCCc1cc2oc(-c3ccc(F)cc3)c(C(=O)NC)c2cc1-c1cccc(C(=O)NC2(C)CC(OC(F)F)C2)c1 (single isomer, unassigned) [Example 55a, 5-(3-((3-(Difluoromethoxy)-1-methylcyclobutyl)carbamoyl)phenyl)-2-(4-fluorophenyl)-N-methyl-6-propylbenzofuran-3-carboxamide]	30
CNC(=O)c1c(-c2ccc(F)cc2)oc2cc(CCC(F)(F)F)c(-c3cc(C(=O)NC4(c5ncccn5)CC(OC(F)(F)F)C4)c(OC)cc3C)cc12 (single isomer, unassigned) [Example 46a, 2-(4-Fluorophenyl)-5-(4-methoxy-2-methyl-5-((1-(pyrimidin-2-yl)-3-(trifluoromethoxy)cyclobutyl)carbamoyl)phenyl)-N-methyl-6-(3,3,3-trifluoropropyl)benzofuran-3-carboxamide]	40
CCCc1cc2oc(-c3ccc(F)cc3)c(C(=O)NC)c2cc1-c1cc(C(=O)NC2(c3ncccn3)CC(OC(F)F)C2)c(OC)cc1C (stereo not shown) [Example 39, 5-(5-((3-(Difluoromethoxy)-1-(pyrimidin-2-yl)cyclobutyl)carbamoyl)-4-methoxy-2-methylphenyl)-2-(4-fluorophenyl)-N-methyl-6-propylbenzofuran-3-carboxamide]	20
CNC(=O)c1c(-c2ccc(F)cc2)oc2cc(CCC(F)(F)F)c(-c3ccc(F)c(C(=O)NC4(c5ncccn5)CC(OC(F)(F)F)C4)c3)cc12 (single isomer, unassigned) [Example 49a, 5-(4-Fluoro-3-((1-(pyrimidin-2-yl)-3-(trifluoromethoxy)cyclobutyl)carbamoyl)phenyl)-2-(4-fluorophenyl)-N-methyl-6-(3,3,3-trifluoropropyl)benzofuran-3-carboxamide]	20
CCCc1cc2oc(-c3ccc(F)cc3)c(C(=O)NC)c2cc1-c1cccc(C(=O)NC2(c3ncccn3)CC(OC(F)F)C2)c1 (stereo not shown) [Example 33, 5-(3-((3-(Difluoromethoxy)-1-(pyrimidin-2-yl)cyclobutyl)carbamoyl)phenyl)-2-(4-fluorophenyl)-N-methyl-6-propylbenzofuran-3-carboxamide]	4.55
CNC(=O)c1c(-c2ccc(F)cc2)oc2cc(CCC(F)(F)F)c(-c3cc(C(=O)NC4(C)CC(OC(F)F)C4)c(OC)cc3C)cc12 (single isomer, unassigned) [Example 53a, 5-(5-((3-(Difluoromethoxy)-1-methylcyclobutyl)carbamoyl)-4-methoxy-2-methylphenyl)-2-(4-fluorophenyl)-N-methyl-6-(3,3,3-trifluoropropyl)benzofuran-3-carboxamide]	60
CCCc1cc2oc(-c3ccc(F)cc3)c(C(=O)NC)c2cc1-c1ccc(F)c(C(=O)NC2(c3ncccn3)CC(OC(F)(F)F)C2)c1 (single isomer, unassigned) [Example 48a, 5-(4-Fluoro-3-((1-(pyrimidin-2-yl)-3-(trifluoromethoxy)cyclobutyl)carbamoyl)phenyl)-2-(4-fluorophenyl)-N-methyl-6-propylbenzofuran-3-carboxamide]	20
